Assay results reported in US9469863B2, “Aminoglycoside antibiotics, process for producing the same, and pharmaceutical use thereof” (MEIJI SEIKA KAISHA, LTD., priority 2007, dated 2016).
Values after ≈ are worked out from the molar mass of the structure shown.

What was measured:
[1] = Physicochemical properties: solubility
[2] = tested on: Salmonella typhimurium ATCC13311; test: Antimicrobial activity, MIC by agar dilution method; format: cell-based; conditions: Salmonella enterica, Mueller-Hinton agar, 37° C., 18 to 20 hr
Protocol: (§1) The antimicrobial activity of 2-hydroxykanamycin B and 2-hydroxykanamycin C was measured as the minimum inhibitory concentration (MIC) by an agar dilution method. Test bacteria which had been cultivated overnight in a growth medium were adjusted to 10^6 cells/ml, and one platinum loop thereof was inoculated in a Mueller-Hinton agar medium containing 2-hydroxykanamycin B or 2-hydroxykanamycin C (manufactured by Difco Laboratories Inc.), followed by cultivation at 37° C. for 18 to 20 hr.

[3] = tested on: Enterococcus faecalis ATCC29212; test: as above; format: cell-based; conditions: Mueller-Hinton agar, 37° C., 18 to 20 hr
Protocol: as §1

[4] = tested on: Staphylococcus aureus ATCC29213; test: as above; format: cell-based; conditions: Mueller-Hinton agar, 37° C., 18 to 20 hr
Protocol: as §1

[5] = tested on: Bacillus subtilis ATCC6633; test: as above; format: cell-based; conditions: Mueller-Hinton agar, 37° C., 18 to 20 hr
Protocol: as §1

[6] = tested on: Pseudomonas aeruginosa PA01; test: as above; format: cell-based; conditions: Mueller-Hinton agar, 37° C., 18 to 20 hr
Protocol: as §1

[7] = tested on: Enterococcus faecium ATCC19434; test: as above; format: cell-based; conditions: Mueller-Hinton agar, 37° C., 18 to 20 hr
Protocol: as §1

[8] = tested on: Staphylococcus aureus 209P JC-1; test: as above; format: cell-based; conditions: Mueller-Hinton agar, 37° C., 18 to 20 hr
Protocol: as §1

[9] = tested on: Escherichia coli ATCC25922; test: as above; format: cell-based; conditions: Mueller-Hinton agar, 37° C., 18 to 20 hr
Protocol: as §1

[10] = tested on: Acinetobacter calcoaceticus ATCC23055; test: as above; format: cell-based; conditions: Mueller-Hinton agar, 37° C., 18 to 20 hr
Protocol: as §1

[11] = tested on: Staphylococcus epidermidis ATCC14990; test: as above; format: cell-based; conditions: Mueller-Hinton agar, 37° C., 18 to 20 hr
Protocol: as §1

| Solubility ([1]; in chloroform) | Solubility ([1]; in ethyl acetate) | Solubility ([1]; in water) | MIC [2] [µg/mL] | MIC [3] [µg/mL] | MIC [4] [µg/mL] | MIC [5] [µg/mL] | MIC [6] [µg/mL] | MIC [7] [µg/mL] | MIC [8] [µg/mL] | MIC [9] [µg/mL] | MIC [10] [µg/mL] | MIC [11] [µg/mL] | Compound |
| --- | --- | --- | --- | --- | --- | --- | --- | --- | --- | --- | --- | --- | --- |
| insoluble | insoluble | soluble | 1 (≈ 2 µM) | 64 (≈ 128 µM) | 2 (≈ 4 µM) | 0.5 (≈ 1 µM) | 128 (≈ 256 µM) | 64 (≈ 128 µM) | 2 (≈ 4 µM) | 4 (≈ 8.01 µM) | 1 (≈ 2 µM) | 1 (≈ 2 µM) | NCC1OC(OC2C(N)C(O)C(N)C(OC3OC(CO)C(O)C(N)C3O)C2O)C(N)C(O)C1O (centres unmarked) [2-Hydroxykanamycin B, 2-hydroxykanamycin B] |
| insoluble | insoluble | soluble | 32 (≈ 63.9 µM) | > 128 | 128 (≈ 256 µM) | 16 (≈ 32 µM) | > 128 | > 128 | 128 (≈ 256 µM) | 128 (≈ 256 µM) | 32 (≈ 63.9 µM) | 32 (≈ 63.9 µM) | NC1C(O)C(CO)OC(OC2C(N)C(O)C(N)C(OC3OC(CO)C(O)C(O)C3N)C2O)C1O (centres unmarked) [2-Hydroxykanamycin C, 2-hydroxykanamycin C] |
